target: T1, human TGR5 (Homo sapiens, UniProt Q8TDU6); test: Cell-based TGR5 assay (cAMP generation, HTRF); details: HEK293 cells stably transfected with human TGR5; cAMP by HTRF; 30 minutes at 37° C.
T1 construct: expressed in transfected cells; host or cells: HEK293
T1 sequence (Q8TDU6 1-330): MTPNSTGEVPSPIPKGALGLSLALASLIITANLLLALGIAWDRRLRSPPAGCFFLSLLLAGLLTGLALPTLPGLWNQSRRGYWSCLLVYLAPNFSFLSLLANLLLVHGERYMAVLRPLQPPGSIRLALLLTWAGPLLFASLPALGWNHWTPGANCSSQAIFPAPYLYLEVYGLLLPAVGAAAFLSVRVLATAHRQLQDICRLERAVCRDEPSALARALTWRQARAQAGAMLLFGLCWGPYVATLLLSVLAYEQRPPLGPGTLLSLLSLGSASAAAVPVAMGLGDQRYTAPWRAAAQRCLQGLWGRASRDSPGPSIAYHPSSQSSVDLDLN
Procedure, shortened: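 First, compounds in 3-fold serial dilution were placed in HBSS with 10 mM HEPES pH 7.4 and 0.5 mM IBMX. Next, human TGR5-expressing HEK293 cells were added and incubated 30 min at 37° C. Finally, cAMP was detected by HTRF and pEC50 derived by logistic fitting.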

pEC50 Human TGR5	SMILES
B (B is a pEC50 of 6 to 6.9)	CN(CCCCNC(=O)NCCOCCOCCNC(=O)NCCOCCOCCNC(=O)NCCCCN(C)S(=O)(=O)c1ccc(Cl)c(COC2(c3cnccc3-c3ccccc3OC3CC3)CC2)c1)S(=O)(=O)c1ccc(Cl)c(COC2(c3cnccc3-c3ccccc3OC3CC3)CC2)c1 [Compound I-737, 3-(4-[N-methyl[4-chloro-3-([1-[4-(2-cyclopropoxyphenyl)pyridin-3-yl]cyclopropoxy]methyl)benzene]sulfonamido]butyl)-1-[2-(2-[2-[([2-[2-(2-[[(4-[N-methyl[4-chloro-3-([1-[4-(2-cyclopropoxyphenyl)pyridin-3-yl]cyclopropoxy]methyl)benzene]sulfonamido]butyl)carbamoyl]amino]ethoxy)ethoxy]ethyl]carbamoyl)amino]ethoxy]ethoxy)ethyl]urea]

same assay, conditions: HEK293 cells stably transfected with human TGR5; cAMP by HTRF; 30 minutes at 37° C.; read-out: pEC50 Human TGR5 (converted)

EC50	SMILES
< 100 nM	Cc1ccc(SCCCC(=O)N(C)C[C@H](O)[C@@H](O)[C@H](O)[C@H](O)CO)cc1COC1(c2cnccc2-c2ccccc2OC2CC2)CC1 [Compound I-652, 4-{[3-({1-[4-(2-cyclopropoxyphenyl)pyridin-3-yl]cyclopropoxy}methyl)-4-methylphenyl]sulfanyl}-N-methyl-N-[(2S,3R,4R,5R)-2,3,4,5,6-pentahydroxyhexyl]butanamide]
126 to 1000 nM	O=C(CCCCc1cc(Cl)c(COC2(c3cnccc3-c3ccccc3OC3CC3)CC2)cc1Cl)N(Cc1ccccc1)C[C@@H](O)[C@H](O)[C@H](O)[C@H](O)CO [Compound I-120, N-benzyl-5-(2,5-dichloro-4-((1-(4-(2-cyclopropoxyphenyl)pyridin-3-yl)cyclopropoxy)methyl)phenyl)-N-((2R,3S,4R,5R)-2,3,4,5,6-pentahydroxyhexyl)pentanamide]
< 100 nM	O=C(NC[C@H](O)[C@@H](O)[C@H](O)[C@H](O)CO)N[C@H]1CC[C@H](NS(=O)(=O)c2ccc(Cl)c(COC3(c4cnccc4-c4ccccc4OC4CC4)CC3)c2)CC1 [Compound I-418, 3-[(2S,3R,4R,5R)-2,3,4,5,6-pentahydroxyhexyl]-1-[(1r,4r)-4-[4-chloro-3-({l-[4-(2-cyclopropoxyphenyl)pyridin-3-yl]cyclopropoxy}methyl)benzenesulfonamido]cyclohexyl]urea]
< 100 nM	O=C(O)CN(C[C@H](O)[C@@H](O)[C@H](O)[C@H](O)CO)C(=O)CCCCc1cc(Cl)c(COC2(c3cnccc3-c3ccccc3OC3CC3)CC2)cc1Cl [Compound I-87, 2-(5-(2,5-dichloro-4-((1-(4-(2-cyclopropoxyphenyl)pyridin-3-yl)cyclopropoxy)methyl)phenyl)-N-((2S,3R,4R,5R)-2,3,4,5,6-pentahydroxyhexyl)pentanamido)acetic acid]
126 to 1000 nM	Cc1ccc(SCCCN(CCCS(C)(=O)=O)C(=O)[C@@H](O)[C@@H](O)[C@H](O)[C@@H](O)CO)cc1COC1(c2cnccc2-c2ccccc2OC2CC2)CC1 [Compound I-537, (2S,3S,4R,5S)-N-(3-{[3-({1-[4-(2-cyclopropoxyphenyl)pyridin-3-yl]cyclopropoxy}methyl)-4-methylphenyl]sulfanyl}propyl)-2,3,4,5,6-pentahydroxy-N-(3-methanesulfonylpropyl) hexanamide]
< 100 nM	Cc1ccc(C(C)CCCCNC(=O)NC[C@H](O)[C@@H](O)[C@H](O)[C@H](O)CO)cc1COC1(c2cnccc2-c2ccccc2OC2CC2)CC1 (stereo partly drawn) [Compound I-276, 1-{5-[3-({1-[4-(2-cyclopropoxyphenyl)pyridin-3-yl]cyclopropoxy}methyl)-4-methylphenyl]hexyl}-3-[(2S,3R,4R,5R)-2,3,4,5,6-pentahydroxyhexyl]urea]
< 100 nM	CC(CCCC(=O)NC[C@H](O)[C@@H](O)[C@H](O)[C@H](O)CO)c1cc(Cl)c(CNC2(c3cnccc3-c3ccccc3OC3CC3)CC2)cc1Cl (stereo partly drawn) [Compound I-260, 5-[2,5-dichloro-4-[([1-[4-(2-cyclopropoxyphenyl)pyridin-3-yl]cyclopropyl]amino)methyl]phenyl]-N-[(2S,3R,4R,5R)-2,3,4,5,6-pentahydroxyhexyl]hexanamide]
126 to 1000 nM	Cc1ccc(SCCCN(CCCCO)C(=O)[C@@H](O)[C@@H](O)[C@H](O)[C@@H](O)CO)cc1CNC1(c2cnccc2-c2ccccc2OC2CC2)CC1 [Compound I-546, (2S,3S,4R,5S)-N-[3-({3-[({1-[4-(2-cyclopropoxyphenyl)pyridin-3-yl]cyclopropyl}amino)methyl]-4-methylphenyl}sulfanyl)propyl]-2,3,4,5,6-pentahydroxy-N-(4-hydroxybutyl) hexanamide]
< 100 nM	CCN(CCCCc1cc(Cl)c(COC2(c3cnccc3-c3ccccc3OC3CC3)CC2)cc1C)C(=O)NC[C@H](O)[C@@H](O)[C@H](O)[C@H](O)CO [Compound I-96, 1-(4-(5-chloro-4-((1-(4-(2-cyclopropoxyphenyl)pyridin-3-yl)cyclopropoxy)methyl)-2-methylphenyl)butyl)-1-ethyl-3-((2S,3R,4R,5R)-2,3,4,5,6-pentahydroxyhexyl)urea]
< 100 nM	CC(CCCCNC(=O)[C@@H](O)[C@@H](O)[C@H](O)[C@@H](O)CO)c1ccc(Cl)c(CNC2(c3cnccc3-c3ccccc3OC3CC3)CC2)c1 (stereo partly drawn) [Compound I-279, (2S,3S,4R,5S)-N-(5-{4-chloro-3-[({1-[4-(2-cyclopropoxyphenyl)pyridin-3-yl]cyclopropyl}amino)methyl]phenyl}hexyl)-2,3,4,5,6-pentahydroxyhexanamide]
< 100 nM	O=C(NCCC1CN(S(=O)(=O)c2ccc(Cl)c(COC3(c4cnccc4-c4ccccc4OC4CC4)CC3)c2)C1)NC[C@H](O)[C@@H](O)[C@H](O)[C@H](O)CO [Compound I-421, 1-(2-{1-[4-chloro-3-({1-[4-(2-cyclopropoxyphenyl)pyridin-3-yl]cyclopropoxy}methyl)benzenesulfonyl]azetidin-3-yl}ethyl)-3-[(2S,3R,4R,5R)-2,3,4,5,6-pentahydroxyhexyl]urea]
< 100 nM	CC(=O)NCCCCN(CCCCSc1ccc(Cl)c(COC2(c3cnccc3-c3ccccc3OC3CC3)CC2)c1)C(=O)[C@@H](O)[C@@H](O)[C@H](O)[C@@H](O)CO [Compound I-568, (2S,3S,4R,5S)-N-(4-{[4-chloro-3-({1-[4-(2-cyclopropoxyphenyl)pyridin-3-yl]cyclopropoxy}methyl)phenyl]sulfanyl}butyl)-N-(4-acetamidobutyl)-2,3,4,5,6-pentahydroxyhexanamide]
12600 to 50100 nM	Cc1cnc(SCCCC(=O)N(C)C[C@H](O)[C@@H](O)[C@H](O)[C@H](O)CO)nc1CNC1(c2cnccc2-c2ccccc2OC2CC2)CC1 [Compound I-656, 4-({4-[({1-[4-(2-cyclopropoxyphenyl)pyridin-3-yl]cyclopropyl}amino)methyl]-5-methylpyrimidin-2-yl}sulfanyl)-N-methyl-N-[(2S,3R,4R,5R)-2,3,4,5,6-pentahydroxyhexyl]butanamide]
126 to 1000 nM	O=C(O)CN(CCN(CC(=O)O)CC(=O)NCCOCCSc1ccc(Cl)c(COC2(c3cnccc3-c3ccccc3OC3CC3)CC2)c1)CC(=O)NCCOCCSc1ccc(Cl)c(COC2(c3cnccc3-c3ccccc3OC3CC3)CC2)c1 [Compound I-612, 2-({2-[(carboxymethyl)({[2-(2-{[4-chloro-3-({1-[4-(2-cyclopropoxyphenyl)pyridin-3-yl]cyclopropoxy}methyl)phenyl]sulfanyl}ethoxy)ethyl]carbamoyl}methyl)amino]ethyl}({[2-(2-{[4-chloro-3-({1-[4-(2-cyclopropoxyphenyl)pyridin-3-yl]cyclopropoxy}methyl)phenyl]sulfanyl}ethoxy)ethyl]carbamoyl}methyl)amino)acetic acid]
< 100 nM	CCNC(=O)[C@H](N)CCCCNS(=O)(=O)c1ccc(Cl)c(COC2(c3cnccc3-c3ccccc3OC3CC3)CC2)c1 [Compound I-481, (2R)-2-amino-6-[4-chloro-3-({1-[4-(2-cyclopropoxyphenyl)pyridin-3-yl]cyclopropoxy}methyl)benzenesulfonamido]-N-ethylhexanamide]
126 to 1000 nM	O=C(O)CCCCc1cc(Cl)c(CNC2(c3cnccc3-c3ccccc3OC3CC3)CC2)cc1Cl [Compound I-61, 5-[2,5-dichloro-4-[([1-[4-(2-cyclopropoxyphenyl)pyridin-3-yl]cyclopropyl]amino)methyl]phenyl]pentanoic acid]
< 100 nM	CC(CCCC(=O)N1CCN(C(=O)NC[C@H](O)[C@@H](O)[C@H](O)[C@H](O)CO)CC1)c1ccc(Cl)c(CNC2(c3cnccc3-c3ccccc3OC3CC3)CC2)c1 (stereo partly drawn) [Compound I-319, 4-(5-{4-chloro-3-[({1-[4-(2-cyclopropoxyphenyl)pyridin-3-yl]cyclopropyl}amino)methyl]phenyl}hexanoyl)-N-[(2S,3R,4R,5R)-2,3,4,5,6-pentahydroxyhexyl]piperazine-1-carboxamide]
< 100 nM	Cc1ccc(C(C)CCCC(=O)N(C[C@H](O)[C@@H](O)[C@H](O)[C@H](O)CO)C2CCOCC2)cc1CNC1(c2cnccc2-c2ccccc2OC2CC2)CC1 (stereo partly drawn) [Compound I-363, 5-{3-[({1-[4-(2-cyclopropoxyphenyl)pyridin-3-yl]cyclopropyl}amino)methyl]-4-methylphenyl}-N-(oxan-4-yl)-N-[(2S,3R,4R,5R)-2,3,4,5,6-pentahydroxyhexyl]hexanamide]

Reference: US12084472B2 (Ardelyx, Inc., priority 2015, dated 2024)
